ChEMBL document CHEMBL3430320, “Prediction of Thorough QT study results using action potential simulations based on ion channel screens” (J Pharmacol Toxicol Methods, 2014)

Key:
[1] = molecular target: T1, Voltage-gated potassium channel, IKs; KCNQ1(Kv7.1)/KCNE1(MinK) (Homo sapiens, UniProt P51787+P15382); test: Inhibition of slow delayed inward rectifying potassium current (Iks) in Chinese Hamster Ovary (CHO) cells transfected with KCNQ1 / […] / KvLQT1 and KCNE1/minK measured using IonWorks automated patch clamp platform; assay type: functional, cell-based, Cricetulus griseus
[2] = molecular target: T2, Voltage-dependent L-type calcium channel subunit alpha-1C (Homo sapiens, UniProt Q13936); test: Inhibition of long-lasting type calcium current (hICa) in Chinese Hamster Ovary (CHO) cells expressing hCav1.2 measured using IonWorks Quattro automated patch clamp platform; assay type: functional, cell-based, Cricetulus griseus
[3] = molecular target: T2, Voltage-dependent L-type calcium channel subunit alpha-1C; test: Inhibition of long-lasting type calcium current (ICaL) in HEK293 cells (alpha1C/beta2a/alpha2delta1) cells measured using IonWorks Barracuda automated patch clamp platform; assay type: functional, cell-based
[4] = molecular target: T3, A-type voltage-gated potassium channel KCND3 (Homo sapiens, UniProt Q9UK17); test: Inhibition of transient outward potassium current (Ito) current in Chinese Hamster Ovary (CHO) K1 cells expressing human Kv4.3 measured using IonWorks Quattro automated patch clamp platform; assay type: functional, cell-based, Cricetulus griseus
T3 sequence (Q9UK17 whole entry): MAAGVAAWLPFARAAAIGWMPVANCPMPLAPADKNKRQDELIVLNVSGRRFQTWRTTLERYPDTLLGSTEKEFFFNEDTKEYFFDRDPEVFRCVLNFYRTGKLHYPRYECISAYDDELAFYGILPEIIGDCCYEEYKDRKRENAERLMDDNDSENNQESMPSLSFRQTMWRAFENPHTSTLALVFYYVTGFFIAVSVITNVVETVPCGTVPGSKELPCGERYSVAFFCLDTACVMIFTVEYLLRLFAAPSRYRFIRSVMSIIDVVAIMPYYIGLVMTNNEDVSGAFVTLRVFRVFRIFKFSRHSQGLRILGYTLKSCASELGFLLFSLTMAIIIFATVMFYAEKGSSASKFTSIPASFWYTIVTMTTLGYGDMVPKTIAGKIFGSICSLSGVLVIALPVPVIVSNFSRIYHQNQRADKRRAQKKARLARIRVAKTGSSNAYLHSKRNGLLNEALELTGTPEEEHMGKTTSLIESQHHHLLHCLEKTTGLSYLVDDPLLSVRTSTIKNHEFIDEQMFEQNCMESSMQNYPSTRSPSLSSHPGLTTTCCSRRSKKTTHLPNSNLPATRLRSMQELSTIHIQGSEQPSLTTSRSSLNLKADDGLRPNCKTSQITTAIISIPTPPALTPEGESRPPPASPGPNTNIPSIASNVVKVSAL

[5] = molecular target: T4, Voltage-gated inwardly rectifying potassium channel KCNH2 (Homo sapiens, UniProt Q12809); test: Inhibition of rapid delayed inward rectifying potassium current (IKr) in Chinese hamster ovary (CHO) K1 cells stably expressing hERG measured using IonWorks Quattro automated patch clamp platform; assay type: functional, cell-based, Cricetulus griseus
[6] = molecular target: T4, Voltage-gated inwardly rectifying potassium channel KCNH2; test: Inhibition of rapid delayed inward rectifying potassium current (IKr) in Chinese hamster ovary (CHO) cells stable expressing hERG measured using IonWorks Barracuda automated patch clamp platform; assay type: functional, cell-based, Cricetulus griseus
[7] = molecular target: T1, Voltage-gated potassium channel, IKs; KCNQ1(Kv7.1)/KCNE1(MinK); test: (§1) Inhibition of slow delayed inward rectifying potassium current (Iks) in Chinese Hamster Ovary (CHO) cells expressing hKvLQT1/hminK measured using IonWorks Quattro automated patch clamp platform; assay type: functional, cell-based, Cricetulus griseus
[8] = molecular target: Sodium channel protein type 5 subunit alpha (Homo sapiens, UniProt Q14524); test: Inhibition of fast sodium current (INa) in HEK293 cells transfected with human Nav1.5 measured using IonWorks Quattro automated patch clamp platform; assay type: functional, cell-based
[9] = molecular target: T4, Voltage-gated inwardly rectifying potassium channel KCNH2; test: Inhibition of rapid delayed inward rectifying potassium current (IKr) measured using manual patch clamp assay; assay type: functional
[10] = molecular target: T4, Voltage-gated inwardly rectifying potassium channel KCNH2
[11] = molecular target: Voltage-gated potassium channel, IKs; KCNQ1(Kv7.1)/KCNE1(MinK) (Homo sapiens, UniProt P15382+P51787); test: as §1; assay type: functional, cell-based, Cricetulus griseus
Sequence of Voltage-gated potassium channel, IKs; KCNQ1(Kv7.1)/KCNE1(MinK) (Homo sapiens, UniProt P15382+P51787) (P51787 whole entry): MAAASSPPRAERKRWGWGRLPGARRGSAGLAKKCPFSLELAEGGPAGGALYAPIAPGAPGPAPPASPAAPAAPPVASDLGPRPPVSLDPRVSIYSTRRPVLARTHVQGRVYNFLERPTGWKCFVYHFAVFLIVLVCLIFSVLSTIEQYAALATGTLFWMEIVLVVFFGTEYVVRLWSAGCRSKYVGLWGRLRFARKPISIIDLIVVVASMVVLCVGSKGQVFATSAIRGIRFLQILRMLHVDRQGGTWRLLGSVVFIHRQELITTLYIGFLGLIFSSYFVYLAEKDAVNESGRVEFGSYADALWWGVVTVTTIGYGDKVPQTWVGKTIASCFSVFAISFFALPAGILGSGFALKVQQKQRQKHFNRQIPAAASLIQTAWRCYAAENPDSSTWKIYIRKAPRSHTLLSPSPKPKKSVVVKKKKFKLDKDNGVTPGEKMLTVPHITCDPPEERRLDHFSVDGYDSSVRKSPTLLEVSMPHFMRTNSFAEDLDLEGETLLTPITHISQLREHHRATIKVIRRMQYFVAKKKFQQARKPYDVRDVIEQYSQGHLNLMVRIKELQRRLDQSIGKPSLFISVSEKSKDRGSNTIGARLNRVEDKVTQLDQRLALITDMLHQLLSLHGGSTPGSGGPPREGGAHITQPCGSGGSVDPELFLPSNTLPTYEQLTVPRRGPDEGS

T4 sequence (Q12809 whole entry): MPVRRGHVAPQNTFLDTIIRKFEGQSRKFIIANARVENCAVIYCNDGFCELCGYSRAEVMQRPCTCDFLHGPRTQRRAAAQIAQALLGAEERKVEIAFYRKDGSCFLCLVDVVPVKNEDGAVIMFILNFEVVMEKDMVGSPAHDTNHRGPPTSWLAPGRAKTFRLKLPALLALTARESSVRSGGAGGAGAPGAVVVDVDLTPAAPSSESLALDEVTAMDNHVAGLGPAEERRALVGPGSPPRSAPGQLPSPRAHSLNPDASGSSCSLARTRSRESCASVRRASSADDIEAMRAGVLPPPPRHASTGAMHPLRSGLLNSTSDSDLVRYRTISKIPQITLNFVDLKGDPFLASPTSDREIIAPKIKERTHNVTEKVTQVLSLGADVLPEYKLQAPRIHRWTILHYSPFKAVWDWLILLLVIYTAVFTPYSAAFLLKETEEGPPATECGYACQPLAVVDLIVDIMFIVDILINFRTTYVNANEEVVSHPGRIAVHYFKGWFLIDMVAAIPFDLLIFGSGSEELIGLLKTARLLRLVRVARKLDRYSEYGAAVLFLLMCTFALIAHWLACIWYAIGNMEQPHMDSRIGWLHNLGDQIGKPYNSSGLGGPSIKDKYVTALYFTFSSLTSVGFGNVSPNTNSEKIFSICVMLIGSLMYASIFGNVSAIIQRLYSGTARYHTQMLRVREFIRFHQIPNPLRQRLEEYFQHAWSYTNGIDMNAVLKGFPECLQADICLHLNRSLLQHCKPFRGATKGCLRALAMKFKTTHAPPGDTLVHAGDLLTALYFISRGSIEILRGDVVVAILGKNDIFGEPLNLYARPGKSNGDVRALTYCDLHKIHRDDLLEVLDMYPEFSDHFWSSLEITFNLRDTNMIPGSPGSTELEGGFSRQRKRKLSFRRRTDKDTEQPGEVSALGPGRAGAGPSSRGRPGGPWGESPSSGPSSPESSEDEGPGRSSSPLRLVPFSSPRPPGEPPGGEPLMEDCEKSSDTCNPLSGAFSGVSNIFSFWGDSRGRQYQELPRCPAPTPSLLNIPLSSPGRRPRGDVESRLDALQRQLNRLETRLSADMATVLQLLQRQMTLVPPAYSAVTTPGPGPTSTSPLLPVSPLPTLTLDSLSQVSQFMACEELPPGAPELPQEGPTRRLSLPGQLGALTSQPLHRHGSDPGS
T1 sequence (P51787 whole entry): as the sequence (P51787 whole entry) above
T2 sequence (Q13936 whole entry): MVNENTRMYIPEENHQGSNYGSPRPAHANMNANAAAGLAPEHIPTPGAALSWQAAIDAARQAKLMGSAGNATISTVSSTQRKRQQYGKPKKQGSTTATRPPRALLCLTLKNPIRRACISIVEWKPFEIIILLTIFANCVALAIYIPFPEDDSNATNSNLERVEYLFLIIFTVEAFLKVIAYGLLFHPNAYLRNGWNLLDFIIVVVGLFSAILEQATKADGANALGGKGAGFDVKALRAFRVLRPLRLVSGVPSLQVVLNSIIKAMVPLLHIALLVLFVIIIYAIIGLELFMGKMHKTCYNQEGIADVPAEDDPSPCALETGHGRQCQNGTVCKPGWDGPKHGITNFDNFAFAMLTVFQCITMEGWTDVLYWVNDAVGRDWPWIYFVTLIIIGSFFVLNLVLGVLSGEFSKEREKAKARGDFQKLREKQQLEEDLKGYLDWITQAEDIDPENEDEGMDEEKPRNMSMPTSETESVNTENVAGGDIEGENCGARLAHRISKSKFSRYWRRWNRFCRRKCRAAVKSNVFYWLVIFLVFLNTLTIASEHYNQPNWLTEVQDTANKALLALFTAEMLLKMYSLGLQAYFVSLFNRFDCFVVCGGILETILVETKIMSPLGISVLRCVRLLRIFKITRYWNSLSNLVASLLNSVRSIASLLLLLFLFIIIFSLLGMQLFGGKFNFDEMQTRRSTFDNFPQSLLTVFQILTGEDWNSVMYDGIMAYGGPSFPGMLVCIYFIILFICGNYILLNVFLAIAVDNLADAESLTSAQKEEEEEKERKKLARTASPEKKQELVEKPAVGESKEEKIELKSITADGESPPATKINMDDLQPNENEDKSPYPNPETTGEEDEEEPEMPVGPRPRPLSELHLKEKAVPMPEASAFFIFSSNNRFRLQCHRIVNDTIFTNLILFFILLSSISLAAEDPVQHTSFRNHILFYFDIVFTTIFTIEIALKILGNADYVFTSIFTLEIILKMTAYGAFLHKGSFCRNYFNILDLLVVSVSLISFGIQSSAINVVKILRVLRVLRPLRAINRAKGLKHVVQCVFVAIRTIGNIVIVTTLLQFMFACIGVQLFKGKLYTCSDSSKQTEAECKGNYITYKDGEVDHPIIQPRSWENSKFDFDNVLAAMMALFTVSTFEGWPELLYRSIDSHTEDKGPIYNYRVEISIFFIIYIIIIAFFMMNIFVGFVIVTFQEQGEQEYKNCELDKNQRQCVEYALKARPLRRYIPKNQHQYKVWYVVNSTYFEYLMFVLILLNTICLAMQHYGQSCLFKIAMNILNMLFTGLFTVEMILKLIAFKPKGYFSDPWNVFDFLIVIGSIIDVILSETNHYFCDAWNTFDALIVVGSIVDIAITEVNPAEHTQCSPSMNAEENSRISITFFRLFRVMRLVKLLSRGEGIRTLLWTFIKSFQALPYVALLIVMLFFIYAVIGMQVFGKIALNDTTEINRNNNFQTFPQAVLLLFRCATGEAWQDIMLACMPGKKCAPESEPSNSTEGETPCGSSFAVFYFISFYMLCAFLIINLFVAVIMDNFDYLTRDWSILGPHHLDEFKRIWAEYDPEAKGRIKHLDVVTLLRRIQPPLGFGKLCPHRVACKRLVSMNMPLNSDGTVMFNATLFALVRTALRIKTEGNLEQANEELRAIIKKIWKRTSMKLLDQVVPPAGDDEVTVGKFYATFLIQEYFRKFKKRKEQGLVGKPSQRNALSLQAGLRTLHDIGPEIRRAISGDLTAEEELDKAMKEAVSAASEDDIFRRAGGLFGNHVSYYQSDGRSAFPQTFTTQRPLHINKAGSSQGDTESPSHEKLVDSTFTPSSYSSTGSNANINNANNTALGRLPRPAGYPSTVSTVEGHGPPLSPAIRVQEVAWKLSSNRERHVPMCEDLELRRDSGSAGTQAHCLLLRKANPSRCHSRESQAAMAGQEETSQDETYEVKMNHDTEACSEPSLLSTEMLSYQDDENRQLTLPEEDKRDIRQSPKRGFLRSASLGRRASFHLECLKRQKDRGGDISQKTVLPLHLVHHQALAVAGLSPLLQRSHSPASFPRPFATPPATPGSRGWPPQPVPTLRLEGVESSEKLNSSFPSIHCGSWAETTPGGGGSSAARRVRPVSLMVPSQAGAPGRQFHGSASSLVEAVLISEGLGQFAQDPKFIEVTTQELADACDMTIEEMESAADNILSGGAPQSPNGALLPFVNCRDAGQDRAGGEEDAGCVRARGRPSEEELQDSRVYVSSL

Row | pIC50 [1] | pIC50 [3] | SMILES | pIC50 [2] | other results
1 | Inactive |  | CCCc1nc(C)c2c(=O)[nH]c(-c3cc(S(=O)(=O)N4CCN(CC)CC4)ccc3OCC)nn12 |  | 
2 | Inactive | Inactive | Cc1c(O)cccc1C(=O)N[C@@H](CSc1ccccc1)[C@H](O)CN1C[C@H]2CCCC[C@H]2C[C@H]1C(=O)NC(C)(C)C | Inactive | 
3 | Inactive | Inactive | COc1cc2nc(N(C)CCCNC(=O)C3CCCO3)nc(N)c2cc1OC (stereo unspecified) [ALFUZOSIN] |  | 
4 |  |  | C[C@H]1CN(C[C@H](Cc2ccccc2)C(=O)NCC(=O)O)CC[C@@]1(C)c1cccc(O)c1 [ALVIMOPAN] |  | pIC50 [4]: Inactive
5 | Inactive |  | Cc1nc(Nc2ncc(C(=O)Nc3c(C)cccc3Cl)s2)cc(N2CCN(CCO)CC2)n1.O [DASATINIB] |  | 
6 | Inactive | Inactive | O=C(O)c1ccc(-n2nc(-c3ccccc3O)nc2-c2ccccc2O)cc1 [DEFERASIROX] |  | pIC50 [7]: Inactive; pIC50 [5]: Inactive; pIC50 [6]: Inactive
7 |  |  | C[C@@H](O)[C@H]1C(=O)N2C(C(=O)O)=C(S[C@@H]3CN[C@H](CNS(N)(=O)=O)C3)[C@H](C)[C@H]12 [DORIPENEM] |  | pIC50 [4]: Inactive
8 | Inactive | Inactive | CC1=NN(c2ccc(C)c(C)c2)C(=O)/C1=N\Nc1cccc(-c2cccc(C(=O)O)c2)c1O [ELTROMBOPAG] | Inactive | pIC50 [7]: Inactive; pIC50 [5]: Inactive
9 | Inactive | Inactive | Cc1cc(C#N)cc(C)c1Oc1nc(Nc2ccc(C#N)cc2)nc(N)c1Br [ETRAVIRINE] | Inactive | 
10 | Inactive | Inactive | CO[C@H]1C[C@@H]2CC[C@@H](C)[C@@](O)(O2)C(=O)C(=O)N2CCCC[C@H]2C(=O)O[C@H]([C@H](C)C[C@@H]2CC[C@@H](OCCO)[C@H](OC)C2)CC(=O)[C@H](C)/C=C(\C)[C@@H](O)[C@@H](OC)C(=O)[C@H](C)C[C@H](C)/C=C/C=C/C=C/1C [EVEROLIMUS] | Inactive | 
11 | Inactive |  | Nc1nnc(-c2cccc(Cl)c2Cl)c(N)n1 [LAMOTRIGINE] |  | pIC50 [4]: Inactive
12 | Inactive |  | CS(=O)(=O)CCNCc1ccc(-c2ccc3ncnc(Nc4ccc(OCc5cccc(F)c5)c(Cl)c4)c3c2)o1 [LAPATINIB] |  | pIC50 [8]: Inactive; pIC50 [4]: Inactive
13 |  |  | OC(CNCC(O)C1CCc2cc(F)ccc2O1)C1CCc2cc(F)ccc2O1 (stereo unspecified) [NEBIVOLOL] | Inactive | IC50 [9]: 0.316 µM
14 | Inactive |  | Cc1cn(-c2cc(NC(=O)c3ccc(C)c(Nc4nccc(-c5cccnc5)n4)c3)cc(C(F)(F)F)c2)cn1 [NILOTINIB] |  | 
15 |  |  | O=C1c2cccc3c2[C@H](CCC3)CN1[C@@H]1CN2CCC1CC2 [PALONOSETRON] |  | IC50 [9]: 2 µM; pIC50 [4]: Inactive
16 |  |  | C[C@H](Cc1cc2c(c(C(N)=O)c1)N(CCCO)CC2)NCCOc1ccccc1OCC(F)(F)F [SILODOSIN] |  | IC50 [10]: 7.94 µM
17 | Inactive | Inactive | N[C@@H](CC(=O)N1CCn2c(nnc2C(F)(F)F)C1)Cc1cc(F)c(F)cc1F [SITAGLIPTIN] |  | 
18 |  |  | Cc1cn([C@@H]2C[C@@H](O)[C@H](CO)O2)c(=O)[nH]c1=O [TELBIVUDINE] | Inactive | pIC50 [4]: Inactive; pIC50 [5]: 2.3
19 |  |  | Cc1ccc(O)c([C@H](CCN(C(C)C)C(C)C)c2ccccc2)c1 [TOLTERODINE] |  | IC50 [11]: 79.4 µM

Row | SMILES | pIC50 [1] | pIC50 [3] | pIC50 [2] | other results
20 | COC(c1ccccc1)(c1ccccc1)[C@H](Oc1nc(C)cc(C)n1)C(=O)O [AMBRISENTAN] |  | Inactive |  | pIC50 [5]: 2.1; pIC50 [6]: Inactive
21 | CN(C)CC(c1ccc(O)cc1)C1(O)CCCCC1 (stereo unspecified) [DESVENLAFAXINE] | Inactive | Inactive | Inactive | pIC50 [7]: Inactive; pIC50 [5]: 1.7; pIC50 [6]: Inactive
